Test results published in the supplement of paper PMC10307832.

Columns and labels:
Assay in all cases: relative viability (nuclei count vs DMSO), 5 days (fraction); higher = more cells survive
[1] = compound: Nc1nc(Nc2ccc3c(c2)CC[C@@H](N2CCCC2)CC3)nn1-c1cc2c(nn1)-c1ccccc1CCC2 [Bemcentinib] + O=C(c1cc(Cc2n[nH]c(=O)c3ccccc23)ccc1F)N1CCN(C(=O)C2CC2)CC1 [Olaparib] (partner 8 µM)
Outline: (§1)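 For relative viability, nuclei counts in treated wells were divided by those in vehicle wells. Lung cancer cell lines had been pin-tool dosed in 1536-well plates the day after seeding and cultured for 5 days, then fixed and stained in one step (final 0.05% Triton X-100, 1% formaldehyde, 1 ug/ml Hoechst) and imaged at 4×. Doses were one drug alone or a fixed anchor-drug dose plus five library-drug doses (not always all listed) in √10 steps, and values are duplicate-plate medians.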

[2] = compound: Nc1nc(Nc2ccc3c(c2)CC[C@@H](N2CCCC2)CC3)nn1-c1cc2c(nn1)-c1ccccc1CCC2 [Bemcentinib] + NC(=O)Nc1cc(-c2cccc(F)c2)sc1C(=O)N[C@H]1CCCNC1 [AZD7762] (partner 0.2 µM)
Outline: as §1

[3] = compound: CNC(=O)c1ccccc1Sc1ccc2c(/C=C/c3ccccn3)n[nH]c2c1 [Axitinib] + CC(=O)c1c(C)c2cnc(Nc3ccc(N4CCNCC4)cn3)nc2n(C2CCCC2)c1=O [Palbociclib] (partner 0.5 µM)
Outline: as §1

[4] = compound: CC1=CC=C(C=C1)C(=O)CN2C3=C(CCCC3)SC2=N [Pifithrin_alpha] + C[C@]1(O)C[C@@H](c2nc(-c3ccc4ccc(-c5ccccc5)nc4c3)c3c(N)nccn32)C1 [Linsitinib] (partner 1 µM)
Outline: as §1

NCI-H650
relative viability ([1]; first compound 0.04 µM): 0.402 | relative viability ([1]; first compound 0.1265 µM): 0.424 | relative viability ([1]; first compound 0.4 µM): 0.42 | relative viability ([1]; first compound 1.265 µM): 0.424 | relative viability ([1]; first compound 4 µM): 0.36 | relative viability ([2]; first compound 0.04 µM): 0.956 | relative viability ([2]; first compound 0.1265 µM): 0.964 | relative viability ([2]; first compound 0.4 µM): 1.15 | relative viability ([2]; first compound 1.265 µM): 0.886 | relative viability ([2]; first compound 4 µM): 1.17 | relative viability ([3]; first compound 0.005 µM): 0.327 | relative viability ([3]; first compound 0.01581 µM): 0.342 | relative viability ([3]; first compound 0.05 µM): 0.312 | relative viability ([3]; first compound 0.1581 µM): 0.321 | relative viability ([3]; first compound 0.5 µM): 0.325 | relative viability ([4]; first compound 3.162 µM): 1 | relative viability ([4]; first compound 10 µM): 0.778 | relative viability ([4]; first compound 31.62 µM): 0.524 | relative viability ([4]; first compound 100 µM): 0.807
